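Exposure lasted 48 hours, with cells grown in 96-well plates and compounds tested at five concentrations. GI50 marks 50% less growth. TGI denotes the concentration required for complete inhibition of growth.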
Experiments:
Experiment in all cases: NCI anticancer screen, dose series, 48 h
RXF 393 renal = tested on: RXF 393 renal
SK-MEL-2 melanoma = tested on: SK-MEL-2 melanoma
A498 renal = tested on: A498 renal
HL-60(TB) leukemia = tested on: HL-60(TB) leukemia
HS 578T breast = tested on: HS 578T breast
OVCAR-3 ovarian = tested on: OVCAR-3 ovarian
A549 NSCLC = tested on: A549 NSCLC
CCRF-CEM leukemia = tested on: CCRF-CEM leukemia

SMILES	GI50 (RXF 393 renal) [µM]	TGI (RXF 393 renal) [µM]	GI50 (SK-MEL-2 melanoma) [µM]	TGI (SK-MEL-2 melanoma) [µM]	GI50 (A498 renal) [µM]	TGI (A498 renal) [µM]	GI50 (HL-60(TB) leukemia) [µM]	TGI (HL-60(TB) leukemia) [µM]	GI50 (HS 578T breast) [µM]	TGI (HS 578T breast) [µM]	GI50 (OVCAR-3 ovarian) [µM]	TGI (OVCAR-3 ovarian) [µM]	GI50 (A549 NSCLC) [µM]	TGI (A549 NSCLC) [µM]	GI50 (CCRF-CEM leukemia) [µM]	TGI (CCRF-CEM leukemia) [µM]
CCCn1cnc2c(SCc3ccccc3Cl)nc(N)nc21	6.16	24.8	22.6	50.9	18.3	> 100	5.53	28.6	40.4	> 100	20.5	79.6	20.8	> 100	5.9	47.3
O=C1CCCCN1CCCCC#Cc1ccccc1C#Cc1ccc([N+](=O)[O-])cc1	1.68	11.1	3.65	16.7	4.01	25	1.75	6.64	5.05	23.5	10.9	23.6	3.03	13	2.87	18.2
COc1ccc(/C(COc2c(-c3ccccc3)oc3ccccc3c2=O)=N\O)cc1	31.9	> 50	9.82	45.5			20	> 50					23.2	> 50	37	> 50
Cc1ccc2c(c1)[n+]([O-])c(N)n[n+]2[O-]				> 100		> 100		> 100		> 100		> 100		> 100		> 100
CS(=O)(=O)c1ccc([C@H]2O[C@@H](CO)C[C@]2(O)c2ccc(S(C)(=O)=O)cc2)cc1	> 100	> 100			> 100	> 100	> 100	> 100	> 100	> 100	> 100	> 100	> 100	> 100	> 100	> 100
CC[C@]1(O)C[C@@H]2CN(CCc3c([nH]c4ccccc34)[C@@](C(=O)OC)(c3cc4c(cc3OC)N(C)[C@H]3[C@@](O)(C(=O)OC)[C@H](OC(C)=O)[C@]5(CC)C=CCN6CC[C@]43[C@@H]65)C2)C1	< 0.01	3.77	< 0.0149	20.2	< 0.01	< 0.01	< 0.01	< 0.01	< 0.01	10.8	< 0.01	< 0.01	< 0.01	> 100	< 0.01	> 49.3
CC1(C)OC2[C@@H](CNC(=O)NC(=O)NC(=O)CI)O[C@@H](n3cnc4c(NC(=O)Nc5ccccc5)ncnc43)[C@H]2O1 (some centres not stated)	6.96	13.6	10.5	21.5	18	> 50	1.61	4.13	12.5	37.8	5.72	12.6	> 50	> 50		
Oc1ccc2ccccc2c1N=Nc1nccs1	3.33	> 59.2	3.09	34.5	10.5	> 96.7	0.267	> 100	4.55	45.2	0.417	8.99	6.18	> 53.4	0.0932	
COc1ccc(NC2=CC(=O)C(=O)c3ccccc32)nn1		3.78		4.32		3.29		0.898		> 100		5.94		31.2		> 100
Oc1ccc(NCc2nc3ccccc3[nH]2)cc1	30.3	> 100	22.8	98.8	14.7	> 100	> 100	> 100	15	79.2	33.8	> 100	51.6	> 100	> 100	> 100
O=C1c2cc(Cl)ccc2S(=O)(=O)c2c(NCCCNCCO)nc3ccccc3c21			1.93	4.74	2.95	9.34	2.1	6.79	2.68	14.9	0.478	1.66	3.22	12.3	0.648	2.74
COc1ccc(-c2cnnc3c(-c4cccc(C(F)(F)F)c4)cnn23)cc1	0.0291	3.07	1.43	79.8	3.52	62.6	> 100	> 100	4.11	> 100	2.55	6.45	4.19	> 100	> 100	> 100

Source: PubChem BioAssay (NCI)
